Data published in the CheMixHub viscosity set.
± gives the uncertainty stated by the source.

Assay: xn = mol fraction of the nth substance listed

CC(CC(C)(C)C)CP(=O)(O)CC(C)CC(C)(C)C (configuration not stated) + C1CCCCC1
298.15 K, 101 kPa
Conditions | viscosity [mPa·s]
x1 = 0.007 | 0.95 ± 0.011
x1 = 0.0117 | 0.998 ± 0.012
x1 = 0.015 | 1.052 ± 0.012
x2 = 0.1098 | 97.92 ± 1.5
x2 = 0.1822 | 85 ± 1.2
x2 = 0.3325 | 59.34 ± 0.68
x2 = 0.505 | 32.7 ± 0.38
x2 = 0.6519 | 16.56 ± 0.19
x2 = 0.7568 | 8.757 ± 0.1
x2 = 0.7617 | 8.623 ± 0.099
x2 = 0.851 | 4.302 ± 0.05
x2 = 0.8636 | 3.779 ± 0.044
x2 = 0.8895 | 3.032 ± 0.035
x2 = 0.9226 | 2.188 ± 0.026
x2 = 0.9255 | 2.102 ± 0.025
x2 = 0.9573 | 1.489 ± 0.017
x2 = 0.9686 | 1.301 ± 0.015

CCOCCO + C1CCCCC1
viscosity [mPa·s]
Conditions | 298.15 K | 303.15 K | 308.15 K | 313.15 K
101 kPa, x1 = 0.0542 | 0.903 ± 0.016 | – | 0.755 ± 0.013 | –
101 kPa, x1 = 0.1507 | 0.92 ± 0.016 | – | 0.775 ± 0.014 | –
101 kPa, x1 = 0.2541 | 0.952 ± 0.016 | – | 0.805 ± 0.014 | –
101 kPa, x1 = 0.3508 | 0.996 ± 0.017 | – | 0.841 ± 0.014 | –
101 kPa, x1 = 0.452 | 1.057 ± 0.018 | – | 0.888 ± 0.015 | –
101 kPa, x1 = 0.5 | 1.093 ± 0.018 | – | 0.915 ± 0.016 | –
101 kPa, x1 = 0.5497 | 1.135 ± 0.019 | – | 0.945 ± 0.016 | –
101 kPa, x1 = 0.6534 | 1.24 ± 0.02 | – | 1.019 ± 0.017 | –
101 kPa, x1 = 0.7527 | 1.368 ± 0.022 | – | 1.105 ± 0.018 | –
101 kPa, x1 = 0.8492 | 1.524 ± 0.024 | – | 1.206 ± 0.02 | –
101 kPa, x1 = 0.9552 | 1.741 ± 0.028 | – | 1.341 ± 0.022 | –
101.33 kPa, x1 = 0.0993 | 0.864 ± 0.022 | 0.787 ± 0.02 | 0.724 ± 0.019 | 0.663 ± 0.018
101.33 kPa, x1 = 0.2013 | 0.91 ± 0.023 | 0.827 ± 0.021 | 0.755 ± 0.02 | 0.696 ± 0.018
101.33 kPa, x1 = 0.2968 | 0.961 ± 0.024 | 0.875 ± 0.022 | 0.798 ± 0.02 | 0.731 ± 0.019
101.33 kPa, x1 = 0.4007 | 1.035 ± 0.026 | 0.938 ± 0.024 | 0.852 ± 0.022 | 0.786 ± 0.02
101.33 kPa, x1 = 0.495 | 1.112 ± 0.027 | 1.004 ± 0.025 | 0.884 ± 0.022 | 0.837 ± 0.021
101.33 kPa, x1 = 0.5998 | 1.211 ± 0.029 | 1.093 ± 0.027 | 0.992 ± 0.025 | 0.899 ± 0.023
101.33 kPa, x1 = 0.6974 | 1.341 ± 0.032 | 1.2 ± 0.029 | 1.085 ± 0.027 | 0.977 ± 0.024
101.33 kPa, x1 = 0.808 | 1.496 ± 0.036 | 1.341 ± 0.032 | 1.206 ± 0.029 | 1.094 ± 0.027
101.33 kPa, x1 = 0.9006 | 1.714 ± 0.04 | 1.527 ± 0.036 | 1.371 ± 0.033 | 1.231 ± 0.03

CCOCCO + C1CCOC1
viscosity [mPa·s], 101.33 kPa
Conditions | x1 = 0.1003 | x1 = 0.2025 | x1 = 0.3008 | x1 = 0.403 | x1 = 0.5069 | x1 = 0.6012 | x1 = 0.7048 | x1 = 0.7983 | x1 = 0.8839
298.15 K | 0.593 ± 0.004 | 0.677 ± 0.005 | 0.787 ± 0.005 | 0.908 ± 0.006 | 1.057 ± 0.007 | 1.232 ± 0.008 | 1.503 ± 0.01 | 1.701 ± 0.011 | 1.898 ± 0.012
303.15 K | 0.502 ± 0.004 | 0.571 ± 0.004 | 0.66 ± 0.005 | 0.756 ± 0.005 | 0.874 ± 0.006 | 1.011 ± 0.007 | 1.223 ± 0.008 | 1.381 ± 0.009 | 1.546 ± 0.01
308.15 K | 0.475 ± 0.004 | 0.539 ± 0.004 | 0.618 ± 0.005 | 0.702 ± 0.005 | 0.808 ± 0.006 | 0.93 ± 0.006 | 1.091 ± 0.007 | 1.242 ± 0.008 | 1.385 ± 0.009

CC(C)CCO + C1COCCO1
viscosity [mPa·s], 101 kPa
Conditions | x1 = 0.1 | x1 = 0.2067 | x1 = 0.3006 | x1 = 0.4011 | x1 = 0.5011 | x1 = 0.609 | x1 = 0.7009 | x1 = 0.8003 | x1 = 0.908
298.15 K | 1.135 ± 0.02 | 1.151 ± 0.02 | 1.189 ± 0.021 | 1.261 ± 0.022 | 1.37 ± 0.023 | 1.519 ± 0.025 | 1.737 ± 0.028 | 2.122 ± 0.034 | 2.79 ± 0.044
303.15 K | 1.049 ± 0.019 | 1.068 ± 0.019 | 1.116 ± 0.019 | 1.177 ± 0.02 | 1.265 ± 0.021 | 1.388 ± 0.023 | 1.562 ± 0.025 | 1.87 ± 0.03 | 2.429 ± 0.039
308.15 K | 0.9581 ± 0.017 | 0.9865 ± 0.017 | 1.039 ± 0.018 | 1.097 ± 0.019 | 1.156 ± 0.019 | 1.243 ± 0.021 | 1.359 ± 0.022 | 1.615 ± 0.026 | 2.081 ± 0.033

CCOCCO + C1COCCO1
viscosity [mPa·s], 101.33 kPa
Conditions | x1 = 0.1009 | x1 = 0.2023 | x1 = 0.3051 | x1 = 0.4014 | x1 = 0.499 | x1 = 0.602 | x1 = 0.7004 | x1 = 0.8031 | x1 = 0.8976
298.15 K | 1.293 ± 0.009 | 1.299 ± 0.009 | 1.324 ± 0.009 | 1.367 ± 0.009 | 1.424 ± 0.009 | 1.511 ± 0.01 | 1.6 ± 0.01 | 1.733 ± 0.011 | 1.844 ± 0.011
303.15 K | 1.069 ± 0.007 | 1.066 ± 0.007 | 1.085 ± 0.007 | 1.119 ± 0.007 | 1.162 ± 0.008 | 1.228 ± 0.008 | 1.299 ± 0.008 | 1.4 ± 0.009 | 1.487 ± 0.009
308.15 K | 0.982 ± 0.007 | 0.992 ± 0.007 | 1 ± 0.007 | 1.028 ± 0.007 | 1.07 ± 0.007 | 1.12 ± 0.007 | 1.183 ± 0.008 | 1.268 ± 0.008 | 1.344 ± 0.009

CC(C)CCO + C1COCO1
viscosity [mPa·s], 101 kPa
Conditions | x2 = 0.1168 | x2 = 0.2293 | x2 = 0.3377 | x2 = 0.4424 | x2 = 0.5434 | x2 = 0.6409 | x2 = 0.7352 | x2 = 0.8264 | x2 = 0.9146
298.15 K | 3.017 ± 0.066 | 2.523 ± 0.064 | 2.174 ± 0.063 | 1.884 ± 0.062 | 1.366 ± 0.061 | 0.9079 ± 0.06 | 0.8074 ± 0.06 | 0.7367 ± 0.06 | 0.6474 ± 0.06
303.15 K | 2.3 ± 0.025 | 1.806 ± 0.023 | 1.458 ± 0.022 | 1.167 ± 0.021 | 0.9949 ± 0.021 | 0.8818 ± 0.021 | 0.7812 ± 0.021 | 0.7104 ± 0.021 | 0.6212 ± 0.02

CCOCCO + C1COCO1
298.15 K, 101 kPa
Conditions | viscosity [mPa·s]
x2 = 0.1191 | 1.605 ± 0.012
x2 = 0.2332 | 1.379 ± 0.011
x2 = 0.3427 | 1.187 ± 0.0094
x2 = 0.4478 | 1.03 ± 0.0083
x2 = 0.5488 | 0.9124 ± 0.0074
x2 = 0.646 | 0.8144 ± 0.0068
x2 = 0.7395 | 0.7365 ± 0.0062
x2 = 0.8295 | 0.6706 ± 0.0057
x2 = 0.9163 | 0.6129 ± 0.0053

CCOCCO + C=C(C)C(=O)OC
viscosity [mPa·s], 101.3 kPa
Conditions | 298.15 K | 308.15 K
x2 = 0.0533 | 1.64 ± 0.01 | 1.305 ± 0.008
x2 = 0.154 | 1.402 ± 0.009 | 1.146 ± 0.008
x2 = 0.2467 | 1.225 ± 0.008 | 1.022 ± 0.007
x2 = 0.3554 | 1.059 ± 0.007 | 0.9 ± 0.006
x2 = 0.4551 | 0.937 ± 0.006 | 0.807 ± 0.006
x2 = 0.4993 | 0.89 ± 0.006 | 0.77 ± 0.005
x2 = 0.5543 | 0.838 ± 0.006 | 0.727 ± 0.005
x2 = 0.6547 | 0.758 ± 0.005 | 0.658 ± 0.005
x2 = 0.7547 | 0.693 ± 0.005 | 0.6 ± 0.004
x2 = 0.8858 | 0.628 ± 0.004 | 0.537 ± 0.004
x2 = 0.9532 | 0.603 ± 0.004 | 0.517 ± 0.004

CCOCCO + CC#N
viscosity [mPa·s], 101.33 kPa
Conditions | x1 = 0.1016 | x1 = 0.2016 | x1 = 0.2865 | x1 = 0.4004 | x1 = 0.5026 | x1 = 0.6026 | x1 = 0.7122 | x1 = 0.7978 | x1 = 0.8997
298.15 K | 0.458 ± 0.004 | 0.546 ± 0.004 | 0.638 ± 0.005 | 0.79 ± 0.005 | 0.946 ± 0.006 | 1.128 ± 0.007 | 1.346 ± 0.009 | 1.524 ± 0.01 | 1.786 ± 0.011
303.15 K | 0.389 ± 0.003 | 0.461 ± 0.004 | 0.535 ± 0.004 | 0.655 ± 0.005 | 0.781 ± 0.005 | 0.921 ± 0.006 | 1.075 ± 0.007 | 1.236 ± 0.008 | 1.435 ± 0.009
308.15 K | 0.37 ± 0.003 | 0.435 ± 0.003 | 0.501 ± 0.004 | 0.608 ± 0.004 | 0.721 ± 0.005 | 0.845 ± 0.006 | 0.978 ± 0.006 | 1.122 ± 0.007 | 1.295 ± 0.008
